The source of these data is patent publication US10472356B2, “Bicyclic ketone sulfonamide compounds” (AMGEN INC., priority 2015, dated 2019).

Where only a bound is given, the exact number is not on record here.

T1 sequence (Q15858 whole entry): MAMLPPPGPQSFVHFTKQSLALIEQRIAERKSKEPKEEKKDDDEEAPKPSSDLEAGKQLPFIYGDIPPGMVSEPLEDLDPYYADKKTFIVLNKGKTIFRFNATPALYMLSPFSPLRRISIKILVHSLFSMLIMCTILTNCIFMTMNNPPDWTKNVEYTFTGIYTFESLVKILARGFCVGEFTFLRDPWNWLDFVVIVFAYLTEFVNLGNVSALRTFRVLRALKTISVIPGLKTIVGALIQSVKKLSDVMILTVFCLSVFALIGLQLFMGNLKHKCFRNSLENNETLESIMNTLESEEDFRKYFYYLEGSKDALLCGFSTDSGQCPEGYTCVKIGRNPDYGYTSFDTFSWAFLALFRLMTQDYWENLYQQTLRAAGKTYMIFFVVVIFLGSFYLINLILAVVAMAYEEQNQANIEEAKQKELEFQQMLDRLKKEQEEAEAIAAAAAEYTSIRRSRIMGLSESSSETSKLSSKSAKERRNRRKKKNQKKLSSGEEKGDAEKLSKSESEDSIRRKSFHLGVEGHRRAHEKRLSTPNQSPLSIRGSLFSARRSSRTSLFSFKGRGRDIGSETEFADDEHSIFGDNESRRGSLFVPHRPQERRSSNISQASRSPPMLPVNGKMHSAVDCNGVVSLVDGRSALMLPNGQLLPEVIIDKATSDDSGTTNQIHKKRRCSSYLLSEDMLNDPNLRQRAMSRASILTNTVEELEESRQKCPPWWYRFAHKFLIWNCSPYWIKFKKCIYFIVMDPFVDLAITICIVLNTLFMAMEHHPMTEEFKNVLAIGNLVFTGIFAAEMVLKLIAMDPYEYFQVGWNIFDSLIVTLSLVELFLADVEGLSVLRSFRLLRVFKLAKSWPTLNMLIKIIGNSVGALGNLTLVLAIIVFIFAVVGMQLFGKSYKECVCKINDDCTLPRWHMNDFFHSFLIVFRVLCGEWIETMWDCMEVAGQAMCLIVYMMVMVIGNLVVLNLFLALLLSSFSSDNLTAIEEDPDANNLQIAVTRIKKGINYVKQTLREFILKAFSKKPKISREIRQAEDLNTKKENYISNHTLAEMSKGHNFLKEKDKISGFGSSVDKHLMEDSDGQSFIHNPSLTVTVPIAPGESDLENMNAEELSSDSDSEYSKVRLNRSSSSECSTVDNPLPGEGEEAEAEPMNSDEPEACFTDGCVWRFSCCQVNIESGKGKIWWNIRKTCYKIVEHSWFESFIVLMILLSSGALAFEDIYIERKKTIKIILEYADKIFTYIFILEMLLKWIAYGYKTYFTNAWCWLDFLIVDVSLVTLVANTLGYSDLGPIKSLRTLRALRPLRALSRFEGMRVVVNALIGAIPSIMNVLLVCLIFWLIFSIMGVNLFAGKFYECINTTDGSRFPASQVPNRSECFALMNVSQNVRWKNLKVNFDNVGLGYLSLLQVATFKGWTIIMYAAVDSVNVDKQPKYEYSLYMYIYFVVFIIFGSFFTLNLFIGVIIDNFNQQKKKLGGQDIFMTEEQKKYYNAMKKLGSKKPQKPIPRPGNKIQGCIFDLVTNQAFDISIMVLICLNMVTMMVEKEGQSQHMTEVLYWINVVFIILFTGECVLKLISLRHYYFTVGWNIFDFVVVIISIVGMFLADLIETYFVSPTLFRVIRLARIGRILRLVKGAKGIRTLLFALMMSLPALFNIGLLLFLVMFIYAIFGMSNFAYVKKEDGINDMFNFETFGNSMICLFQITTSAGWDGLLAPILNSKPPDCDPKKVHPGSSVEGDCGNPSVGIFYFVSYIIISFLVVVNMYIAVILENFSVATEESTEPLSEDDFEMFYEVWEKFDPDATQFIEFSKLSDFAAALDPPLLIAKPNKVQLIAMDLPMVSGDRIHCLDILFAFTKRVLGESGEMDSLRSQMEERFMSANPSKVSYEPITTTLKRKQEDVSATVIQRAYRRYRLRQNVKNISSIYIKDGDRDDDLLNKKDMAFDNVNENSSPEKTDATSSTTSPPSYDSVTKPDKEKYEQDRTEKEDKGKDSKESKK

One assay addresses T1, human Nav1.7 (Homo sapiens, UniProt Q15858).
T1 construct: expressed in transfected cells; host or cells: HEK293
The experiment in a line: Nav 1.7 In Vitro PatchXpress (PX) Assay. The assay is classed as cell-based. The note with it: HEK 293 cells stably transfected with human Nav1.7; PatchXpress whole cell voltage clamp; partially inactivated state (holding potential yielding 20 to 50% inactivation); read-out: hNav1.7 PX IC50. The protocol:
Nav 1.7 In Vitro PatchXpress (PX) Assay
HEK 293 cells stably transfected with human Nav1.7 were recorded in whole cell voltage clamp mode with the PatchXpress automated electrophysiology system (Molecular Devices, LLC, Sunnyvale, Calif.). Compound effects were measured on a partially inactivated state of the sodium channel. Cells were clamped to a holding potential yielding 20 to 50% inactivation. To elicit sodium current, channels were activated by pulsing to −10 mV for 20 msec. This voltage protocol was repeated at a rate of 0.1 Hz throughout the experiment. A single concentration of test compound was applied to cells for a duration of 3 minutes. Peak sodium current was measured at the end of the compound addition period to determine percent inhibition. Three to five cells were tested per concentration, and IC50 curves were fitted to percent inhibition as a function of concentration.
Regarding `COc1cc(-c2cccc(OC(F)F)c2)c(F)cc1-n1c2c(ccc1=O)CN(S(=O)(=O)Nc1ccon1)CC2` (single isomer, unassigned) [Example 19-M, M-1-(3′-(difluoromethoxy)-2-fluoro-5-methoxy-4-biphenylyl)-N-3-isoxazolyl-2-oxo-1,5,7,8-tetrahydro-1,6-naphthyridine-6(2H)-sulfonamide], the IC50 (commonly the concentration at which inhibition is half-maximal) was determined as 17100 nM.
The same measure, in the same setting: as for `COc1ccc(Cl)cc1-c1cc(OC)c(-n2c3c(ccc2=O)CN(S(=O)(=O)Nc2cccnn2)CC3)cc1F` [Example 59, P-1-(5′-chloro-2-fluoro-2′,5-dimethoxy-[1,1′-biphenyl]-4-yl)-2-oxo-N-(pyridazin-3-yl)-1,2,7,8-tetrahydro-1,6-naphthyridine-6(5H)-sulfonamide], the figure is 48.1 nM; as for `COc1cc(-c2cc(C)cc(C(F)(F)F)c2)c(F)cc1-n1c2c(ccc1=O)CN(S(=O)(=O)Nc1cccnn1)CC2` [Example 75, P-1-(2-fluoro-5-methoxy-3′-methyl-5′-(trifluoromethyl)-[1,1′-biphenyl]-4-yl)-2-oxo-N-(pyridazin-3-yl)-1,2,7,8-tetrahydro-1,6-naphthyridine-6(5H)-sulfonamide], 41.3 nM.
Same read-out and setting: as for `COc1cc(-c2cc(F)cc(Cl)c2)c(F)cc1-n1c2c(ccc1=O)CN(S(=O)(=O)Nc1ncccn1)CC2` (single isomer, unassigned) [Example 31-P, P-1-(3′-chloro-2,5′-difluoro-5-methoxy-4-biphenylyl)-2-oxo-N-2-pyrimidinyl-1,5,7,8-tetrahydro-1,6-naphthyridine-6(2H)-sulfonamide], the figure is 205 nM; as for `COc1cc(C(F)(F)F)ccc1-n1c2c(ccc1=O)CN(S(=O)(=O)Nc1ccon1)CC2` (single isomer, unassigned) [Example 26-P, P-N-3-isoxazolyl-1-(2-methoxy-4-(trifluoromethyl)phenyl)-2-oxo-1,5,7,8-tetrahydro-1,6-naphthyridine-6(2H)-sulfonamide], above 1000 nM.
Same read-out and setting: to `COc1cc(-c2ccc(Cl)c(F)c2)c(F)cc1-n1c2c(ccc1=O)CN(S(=O)(=O)Nc1cccnn1)CC2` [Example 47, P-1-(4′-chloro-2,3′-difluoro-5-methoxy-4-biphenylyl)-2-oxo-N-3-pyridazinyl-1,5,7,8-tetrahydro-1,6-naphthyridine-6(2H)-sulfonamide] belongs 95.1 nM; to `COc1cc(-c2cnc(OC)c(Cl)c2)c(F)cc1-n1c2c(ccc1=O)CN(S(=O)(=O)Nc1cccnn1)CC2` [Example 50, P-1-(4-(5-chloro-6-methoxy-3-pyridinyl)-5-fluoro-2-methoxyphenyl)-2-oxo-N-3-pyridazinyl-1,5,7,8-tetrahydro-1,6-naphthyridine-6(2H)-sulfonamide], 172 nM; to `COc1ccc(-c2ccc(C)c(Cl)c2)cc1-n1c2c(ccc1=O)CN(S(=O)(=O)Nc1cccnn1)CC2` (single isomer, unassigned) [Example 55-M, M-1-(3′-chloro-4-methoxy-4′-methyl-3-biphenylyl)-2-oxo-N-3-pyridazinyl-1,5,7,8-tetrahydro-1,6-naphthyridine-6(2H)-sulfonamide], above 1000 nM.
For the molecule `COc1cc(-c2ccc(C)c(Cl)c2)c(F)cc1-n1c2c(ccc1=O)CN(S(=O)(=O)Nc1cccnn1)CC2` [Example 44, P-1-(3′-chloro-2-fluoro-5-methoxy-4′-methyl-4-biphenylyl)-2-oxo-N-3-pyridazinyl-1,5,7,8-tetrahydro-1,6-naphthyridine-6(2H)-sulfonamide], the half-inhibitory concentration (IC50) turned out to be 73.2 nM.
Still for that read-out and setting: to `COc1ccc(-c2cccc(Cl)c2C)cc1-n1c2c(ccc1=O)CN(S(=O)(=O)Nc1cccnn1)CC2` [Example 57-P, P-1-(3′-chloro-4-methoxy-2′-methyl-3-biphenylyl)-2-oxo-N-3-pyridazinyl-1,5,7,8-tetrahydro-1,6-naphthyridine-6(2H)-sulfonamide] belongs 232 nM.
As for `COc1ccccc1-n1c2c(ccc1=O)CN(S(=O)(=O)Nc1ccon1)CC2` (racemic) [Example 27, (Rac)-N-3-isoxazolyl-1-(2-methoxyphenyl)-2-oxo-1,5,7,8-tetrahydro-1,6-naphthyridine-6(2H)-sulfonamide], the IC50 is above 1000 nM.
Same read-out and setting: to `COc1ccc(-c2ccc(C)c(Cl)c2)cc1-n1c2c(ccc1=O)CN(S(=O)(=O)Nc1cccnn1)CC2` (single isomer, unassigned) [Example 55-P, P-1-(3′-chloro-4-methoxy-4′-methyl-3-biphenylyl)-2-oxo-N-3-pyridazinyl-1,5,7,8-tetrahydro-1,6-naphthyridine-6(2H)-sulfonamide] belongs 710 nM; to `COc1cc(-c2cccc(Cl)c2F)c(F)cc1-n1c2c(ccc1=O)CN(S(=O)(=O)Nc1cccnn1)CC2` [Example 49, P-1-(3′-chloro-2,2′-difluoro-5-methoxy-4-biphenylyl)-2-oxo-N-3-pyridazinyl-1,5,7,8-tetrahydro-1,6-naphthyridine-6(2H)-sulfonamide], 168 nM; to `COc1cc(-c2cc(F)cc(F)c2)c(F)cc1-n1c2c(ccc1=O)CN(S(=O)(=O)Nc1ccon1)CC2` (single isomer, unassigned) [Example 25-M, M-N-3-isoxazolyl-2-oxo-1-(2,3′,5′-trifluoro-5-methoxy-4-biphenylyl)-1,5,7,8-tetrahydro-1,6-naphthyridine-6(2H)-sulfonamide], above 1000 nM.
The same measure, in the same setting: to `COc1cc(C(F)(F)F)ccc1-n1c2c(ccc1=O)CN(S(=O)(=O)Nc1ccon1)CC2` (racemic) [Example 26-(Rac), (Rac)-N-3-isoxazolyl-1-(2-methoxy-4-(trifluoromethyl)phenyl)-2-oxo-1,5,7,8-tetrahydro-1,6-naphthyridine-6(2H)-sulfonamide] belongs above 1000 nM; to `COc1cc(-c2ccc(Cl)c(C)c2)c(F)cc1-n1c2c(ccc1=O)CN(S(=O)(=O)Nc1ccncn1)CC2` [Example 1-P, P-1-(4′-chloro-2-fluoro-5-methoxy-3′-methyl-4-biphenylyl)-2-oxo-N-4-pyrimidinyl-1,5,7,8-tetrahydro-1,6-naphthyridine-6(2H)-sulfonamide], 29.6 nM.
With `COc1cc(C(F)(F)F)ccc1-n1c2c(ccc1=O)CN(S(=O)(=O)Nc1ccon1)CC2` (single isomer, unassigned) [Example 26-M, M-N-3-isoxazolyl-1-(2-methoxy-4-(trifluoromethyl)phenyl)-2-oxo-1,5,7,8-tetrahydro-1,6-naphthyridine-6(2H)-sulfonamide], the IC50 is above 1000 nM.
As to `COc1cc(-c2ccc(F)c(C)c2)c(F)cc1-n1c2c(ccc1=O)CN(S(=O)(=O)Nc1ccon1)CC2` (racemic) [Example 22-(Rac), (Rac)-1-(2,4′-difluoro-5-methoxy-3′-methyl-4-biphenylyl)-N-3-isoxazolyl-2-oxo-1,5,7,8-tetrahydro-1,6-naphthyridine-6(2H)-sulfonamide], the IC50 was 255 nM.
As to `COc1cc(-c2cc(F)cc(F)c2)c(F)cc1-n1c2c(ccc1=O)CN(S(=O)(=O)Nc1ncon1)CC2` (single isomer, unassigned) [Example 17-P, P-N-1,2,4-oxadiazol-3-yl-2-oxo-1-(2,3′,5′-trifluoro-5-methoxy-4-biphenylyl)-1,5,7,8-tetrahydro-1,6-naphthyridine-6(2H)-sulfonamide], the IC50 was above 1000 nM.
The same measure, in the same setting: as for `COc1cc(-c2cc(F)c(F)c(F)c2)c(F)cc1-n1c2c(ccc1=O)CN(S(=O)(=O)Nc1cccnn1)CC2` [Example 46, P-2-oxo-N-3-pyridazinyl-1-(2,3′,4′,5′-tetrafluoro-5-methoxy-4-biphenylyl)-1,5,7,8-tetrahydro-1,6-naphthyridine-6(2H)-sulfonamide], the figure is 102 nM.
Still for that read-out and setting: to `COc1cc(-c2ccc(F)c(Cl)c2)c(F)cc1-n1c2c(ccc1=O)CN(S(=O)(=O)Nc1cccnn1)CC2` [Example 48, P-1-(3′-chloro-2,4′-difluoro-5-methoxy-4-biphenylyl)-2-oxo-N-3-pyridazinyl-1,5,7,8-tetrahydro-1,6-naphthyridine-6(2H)-sulfonamide] belongs 80.3 nM; to `COc1ccc(-c2ccc(Cl)c(C)c2)cc1-n1c2c(ccc1=O)CN(S(=O)(=O)Nc1cccnn1)CC2` [Example 56-P, P-1-(4′-chloro-4-methoxy-3′-methyl-3-biphenylyl)-2-oxo-N-3-pyridazinyl-1,5,7,8-tetrahydro-1,6-naphthyridine-6(2H)-sulfonamide], 493 nM.

The target of another assay is T1, human Nav1.7. The experiment in a line: Nav 1.7 IWB In Vitro Assay (IonWorks Barracuda). The assay is classed as cell-based. The note with it: HEK293 cells stably transfected with human Nav 1.7; IonWorks Barracuda population patch-clamp; cells clamped to −20 mV for 4 minutes with compound; 26th pulse; read-out: hNav1.7 IWB IC50. The protocol:
Nav 1.7 IWB In Vitro Assay
HEK293 cells stably transfected with human Nav 1.7 were recorded in population patch-clamp mode with the IonWorks© Barracuda (IWB) automated electrophysiology system (Molecular Devices, LLC, Sunnyvale, Calif.). From a holding potential of −110 mV, sodium currents were elicited by a train of 26 depolarizations of 150 ms duration to −20 mV at a frequency of 5 Hz. Cells were then clamped to −20 mV for a period of 4 minutes in the presence of a single concentration of test compound. Following this compound incubation period, cells were clamped to −110 mV for three seconds to recover unbound channels and put through the same 26 pulse voltage protocol as above. Peak inward current during the 26th pulse to −20 mV in the presence of compound was divided by the peak inward current evoked by the 26th pulse to −20 mV in the absence of compound to determine percent inhibition. Concentration-response curves of percent inhibition as a function of concentration were generated to calculate IC50 values.
In general terms: In patch-clamp work, channel activity is measured electrically.
Consider `COc1cc(-c2cccc(OC(F)F)c2)c(F)cc1-n1c2c(ccc1=O)CN(S(=O)(=O)Nc1ccon1)CC2` (single isomer, unassigned) [Example 19-M, M-1-(3′-(difluoromethoxy)-2-fluoro-5-methoxy-4-biphenylyl)-N-3-isoxazolyl-2-oxo-1,5,7,8-tetrahydro-1,6-naphthyridine-6(2H)-sulfonamide], for which the IC50 stood at 1940 nM.
Same read-out and setting: to `COc1ccc(Cl)cc1-c1cc(OC)c(-n2c3c(ccc2=O)CN(S(=O)(=O)Nc2cccnn2)CC3)cc1F` [Example 59, P-1-(5′-chloro-2-fluoro-2′,5-dimethoxy-[1,1′-biphenyl]-4-yl)-2-oxo-N-(pyridazin-3-yl)-1,2,7,8-tetrahydro-1,6-naphthyridine-6(5H)-sulfonamide] belongs 6.5 nM.
Same read-out and setting: to `COc1cc(-c2cc(C)cc(C(F)(F)F)c2)c(F)cc1-n1c2c(ccc1=O)CN(S(=O)(=O)Nc1cccnn1)CC2` [Example 75, P-1-(2-fluoro-5-methoxy-3′-methyl-5′-(trifluoromethyl)-[1,1′-biphenyl]-4-yl)-2-oxo-N-(pyridazin-3-yl)-1,2,7,8-tetrahydro-1,6-naphthyridine-6(5H)-sulfonamide] belongs 11.6 nM; to `COc1cc(-c2cc(F)cc(Cl)c2)c(F)cc1-n1c2c(ccc1=O)CN(S(=O)(=O)Nc1ncccn1)CC2` (single isomer, unassigned) [Example 31-P, P-1-(3′-chloro-2,5′-difluoro-5-methoxy-4-biphenylyl)-2-oxo-N-2-pyrimidinyl-1,5,7,8-tetrahydro-1,6-naphthyridine-6(2H)-sulfonamide], 36.9 nM.
